Source: US8816151B2, “Stat5b transgenic mice and methods of use thereof” (Georgia Health Sciences University Research Institute, Inc., priority 2012, dated 2014)

Tests used:
[1] = system: Lymphoma cells from NOD.Stat5bTg mice; test: In vivo hollow fiber assay, lymphoma cells from NOD.Stat5bTg mice; set-up: species or system mouse; conditions: lymphoma cells from NOD.Stat5bTg mice in hollow fibers in nude mice, 4 days of daily treatment
Description: Cellmax implant membranes were purchased from Spectrum Laboratories Inc. (Rancho Dominguez, Calif.). Lymphoma cells from NOD.Stat5b^Tg mice were harvested, suspended in cold phosphate buffered saline (PBS) and introduced into a 15 cm length of hollow fiber. The fiber was heat-sealed at 20 mm intervals, and each segment was separated using a pair of scissors. Intraperitoneal implantation in methoxyflurane anesthetized 6 week-old nude mice were accomplished via a dorsal incision which allowed passage of the hollow fiber into abdomen. The abdominal wall is closed using skin staples. After 3 days of transplantation, mice with implants were treated daily with either AG490 (30 mg/kg/day) or CNH (40 mg/kg/day). Single cell suspensions were obtained after 4 days of treatment by cutting off the sealed ends of the fibers. Cells were then washed twice with PBS and further processed for flow cytometry.
Single-cell suspensions from thymus, spleen, lymph nodes and hollow fibers were stained and analyzed using a fluorescence-activated cell sorting (FACS) flow cytometer (BD Biosciences) with CELLQuest 3.3 software (Becton Dickinson, San Jose, Calif.). All antibodies were purchased from BD PharMingen (San Diego, Calif.) except anti-CD150-PE from Biolegend (San Diego, Calif.). […]

CD150 = CD150 expression by FACS in treated NOD.Stat5bTg mice; assay type: in vivo, mouse; conditions: for CD150 expression on CD8+ thymocytes: NOD.Stat5bTg mice, treatment for 2 weeks, intraperitoneal; for CD150 expression in peripheral blood CD8+ T cells: 10-week old NOD.Stat5bTg mice treated for 2 weeks
Protocol: (§1) AG490 (30 mg/kg/day) and STAT5 inhibitor CNH (40 mg/kg/day) purchased from Calbiochem (La Jolla, Calif.) were injected intraperitoneally into F1 and NOD.Stat5b transgenic lines. Xanthohumol and apigenin (>98% purity by HPLC) purchased from Sigma (St. Louis, Mo.) were used in the chemoprevention experiments. Xanthohumol (100 mg/kg/day) and Apigenin (200 mg/kg/day) were injected alone or in combination intraperitoneally into NOD.Stat5b^Tg mice.
(§2) Single-cell suspensions from thymus, spleen, lymph nodes and hollow fibers were stained and analyzed using a fluorescence-activated cell sorting (FACS) flow cytometer (BD Biosciences) with CELLQuest 3.3 software (Becton Dickinson, San Jose, Calif.). All antibodies were purchased from BD PharMingen (San Diego, Calif.) except anti-CD150-PE from Biolegend (San Diego, Calif.). For intracellular staining, cells were fixed and permeablized using Cytofix/Cytoperm solution (BD PharMingen), followed by P-Stat5 (pY694)-APC staining.

phosphorylated STAT5 = test: STAT5 phosphorylation (p-STAT5) by Western blotting and FACS in treated NOD.Stat5bTg mice; assay type: in vivo, mouse; conditions: for p-STAT5 expression in thymocytes: NOD.Stat5bTg mice, treatment for 2 weeks, Western analysis and FACS; for STAT5 activation (pSTAT5) in peripheral blood CD8+ T cells: 10-week old NOD.Stat5bTg mice treated for 2 weeks, FACS
Protocol: as §1, §2
Whole cell extracts were prepared from thymus or spleens using RIPA lysis buffer (Santa Cruz) supplemented with protease inhibitors. Western blot analysis was carried out as reported (29) by probing the blots with rabbit anti-phospho-Stat5 (Tyr694), rabbit anti-Stat5 or mouse anti-β-actin (Santa Cruz biotechnology), washed, and incubated with a horseradish peroxidase-conjugated anti-rabbit or anti-mouse antibody (Santa Cruz biotechnology). Immunopositive bands were photographed (Versadoc; Bio-Rad) after blots were developed with an enhanced chemiluminescent substrate (Pierce Chemical Co).

[2] = system: Ckmt2, Dgat2, Myl4, Csrp3, Nppa, Sln and Myh6; test: Real-time RT-PCR of genes up-regulated in NOD.Stat5bTg mice; assay type: in vivo, mouse; conditions: normalized with GAPDH, versus vehicle-treated NOD.Stat5bTg mice
Protocol: as §1
RNA was isolated from thymus using the miRACLE™ total RNA isolation kit (Jinfiniti Biosciences) or RNeasy® kit (QIAGEN) and used for microarray and real-time RT-PCR analyses. The Illumina's MouseRef-8 v2.0 Expression BeadChip was used for transcriptional analysis. This BeadChip targets approximately 25,600 well-annotated RefSeq transcripts, over 19,100 unique genes, and enables the interrogation of eight samples in parallel. Probe preparation and hybridization were carried out according to Manufacture's recommendation. The microarray data are MIAME compliant and have been deposited in NCBI Gene Expression Omnibus and are accessible through GEO Series accession number GSE31526.
Real-time PCR was carried out in 96-well PCR plates using the ABI Prism 7900HT real-time PCR instrument (Applied Biosystems, Roche). […] The fluorescent signal was measured at the end of the annealing/elongation step in each cycle.

[3] = system: CD8+ lymphoma cells derived from F1.Stat5bTg mice; test: In vivo hollow fiber assay, lymphoma cells from F1.Stat5bTg mice; set-up: species or system mouse; conditions: hollow fiber assay (data not shown)
CD8+ thymocytes = test: Number of CD8+ thymocytes in treated NOD.Stat5bTg mice; assay type: in vivo, mouse; conditions: treatment for 2 weeks
Protocol: AG490 (30 mg/kg/day) and STAT5 inhibitor CNH (40 mg/kg/day) purchased from Calbiochem (La Jolla, Calif.) were injected intraperitoneally into F1 and NOD.Stat5b transgenic lines. Xanthohumol and apigenin (>98% purity by HPLC) purchased from Sigma (St. Louis, Mo.) were used in the chemoprevention experiments. Xanthohumol (100 mg/kg/day) and Apigenin (200 mg/kg/day) were injected alone or in combination intraperitoneally into NOD.Stat5b^Tg mice. Single-cell suspensions from thymus, spleen, lymph nodes and hollow fibers were stained and analyzed using a fluorescence-activated cell sorting (FACS) flow cytometer (BD Biosciences) with CELLQuest 3.3 software (Becton Dickinson, San Jose, Calif.). All antibodies were purchased from BD PharMingen (San Diego, Calif.) except anti-CD150-PE from Biolegend (San Diego, Calif.). For intracellular staining, cells were fixed and permeablized using Cytofix/Cytoperm solution (BD PharMingen), followed by P-Stat5 (pY694)-APC staining.

[4] = system: lymphoma in NOD.Stat5bTg mice; test: Lymphomagenesis in NOD.Stat5bTg mice; assay type: in vivo, mouse; conditions: 5 week-old NOD.Stat5bTg mice, three cycles of 3-week on and 3-week off
Description: In several experiments, mice were monitored for tumors through physical examination. Mice showing sufficient signs of pain and suffering including thymic and cervical lymphoid enlargement were euthanized for a complete necropsy. Final diagnosis of disease was established by clinical, pathologic and FACS analysis. Images of H&E staining were visualized with an Axiophot I microscope (Carl Zeiss) equipped with a Plan Neofluar 40X objective (FIG. 1c). Images were captured with an Axiocam color CDD camera, and treated on a computer with Axiovision software (Carl Zeiss).
as §1
Since AG490 and STAT5b inhibitor CNH can inhibit STAT5 function and CD150 expression, they could delay lymphomagenesis. […] STAT5 inhibitors are potentially very effective in treating cancers with fewer unpleasant side effects. To test this possibility, CNH (40 mg/kg/day) was used to treat 5 week-old NOD.Stat5^Tg mice with three cycles of 3-week on and 3-week off.

SMILES	apoptosis of lymphoma cells (Annexin V) [1]	CD150 expression on CD8+ thymocytes (CD150)	p-STAT5 expression in thymocytes (phosphorylated STAT5)	expression of genes up-regulated in NOD.Stat5bTg mice (Ckmt2, Dgat2, Myl4, Csrp3, Nppa, Sln and Myh6) in thymocytes [2]	survival of CD8+ lymphoma cells [3]	number of CD8+ thymocytes (CD8+ thymocytes)	CD150 expression in peripheral blood CD8+ T cells (CD150)	STAT5 activation (pSTAT5) in peripheral blood CD8+ T cells (phosphorylated STAT5)	age before which treated mice were free of lymphomas [4] [weeks]	percentage of treated mice that developed lymphoma by 30 weeks of age [4] [%]
N#C/C(=C/c1ccc(O)c(O)c1)C(=O)NCc1ccccc1 [AG490]	significantly increased	inhibited	dramatic decrease	did not significantly down-regulate	did not alter	greatly decreased				
COc1cc(O)c(CC=C(C)C)c(O)c1C(=O)/C=C/c1ccc(O)cc1 [Xanthohumol]							significantly inhibit	significantly inhibit		
O=c1cc(-c2ccc(O)cc2)oc2cc(O)cc(O)c12 [Apigenin]							significantly inhibit	significantly inhibit		
O=C(NN=Cc1coc2ccccc2c1=O)c1cccnc1 [CNH, chromone-based nicotinyl hydrazone]	significantly increased	significantly decreased	did not decrease	did not significantly down-regulate	did not alter	significantly decreased			≥ 27	17
